Test results: patent US20230086007A1, “USE OF DENATONIUM BENZOATE AS A SEED TREATMENT FOR CROPS AS BIRD AND/OR INSECT REPELLENT” (KWS SAAT SE & Co. KGaA, priority 2020, published 2023)
Several values for one entry are separate records, joined by “and”; a condition that tells them apart may be missing. Equal values may be shown once. Entries after “also recorded” stand apart in the source; their conditions may differ.

Assays:
crows = experiment: Field trials on efficacy as a bird repellent, corn seed, plant stand counts; type: in vivo, Corvus; conditions: 0.4 g/50.000 seeds with Redigo M or Maxim XL, 0.8 g/50.000 seeds stand-alone, plant stand counts 3 weeks after emergence, listed as denatonium benzoate
Source text: To evaluate the efficacy of different substances as a bird repellent, 25 locations throughout Europe have been identified with a potentially high pressure of bird damage. 17 different substances (DSM RD9103 BRP, Chili extract, Black Cumin oil, Yucca extract, Mentha pulegium extract, Aluminium-Ammonium-sulfate, Hops extract, fat encapsulated plant extracts, alginate encapsulated plant extracts, Tefluthrin, Thiram, Ziram, Methiocarb, yellow colour substance, denatonium benzoate, SatecWFO20, Redigo M, Maxim XL) have been chosen to evaluate differences on feeding behavior of crows. Three chemical references have been included in the trial: Mesurol liquid (Active substance Methiocarb), Korit (Active Substance Ziram) and TMTD (Active Substance Thiram). Mesurol liquid (Methiocarb) was the standard bird repellent in the past, with a European expiry date of the 3rd of April 2020. TMTD (Thiram) can be used until 30th of January 2020. Korit (Ziram) expires in 2021.
Denatonium benzoate has been tested in 2 different concentrations: 0.4 g/50.000 seeds in combination with standard fungicides Redigo M and Maxim XL and 0.8 g/50.000 seeds as a stand-alone. […]
3 weeks after emergence, 9 locations with bird damage have been identified. Plant stand counts have been assessed and summarized.

maize plants = experiment: Wireworm field trial in Italy: phytotoxicity (PHYGEN) and vigor (VIGOR); conditions: for PHYGEN phytotoxicity, stage E: at emergence; for VIGOR, stage E / VIGOR, stage V3 / VIGOR, stage V5: ratings from 1-10 (10 is best)
Source text: Evaluation took place at emergence (E), at V3 stage (=3 leaves unfolded) and at V5 stage (=5 leaves unfolded). The following characteristics have been phenotyped: phytotoxicity (PHYGEN) at stage E, V3 and V5 in % per plot, vigor (VIGOR) at stage E, V3 and V5 in ratings from 1-10 (10 is best), insect damage (DAMINS) at stage V5 in plants per row (left DAMINS column in Table 7) and in % per row (right DAMINS column in Table 7).

[1] = test system: wireworm of genus Agriotes; experiment: Wireworm repellent pot assay on corn in greenhouse; type: in vivo; conditions: eight days after sowing
Protocol: Testing took place in pot assays. Per pot four corn seeds were sown (see FIG. 2A). In each pot four wireworm of genus Agriotes were placed in a central cavity of 5 cm depth (see FIG. 2B). […] The seeds in the pots were germinated and seedlings were grown under controlled conditions in greenhouse.
Eight days after sowing the plant biomass (FIG. 3; Table 6) as well as seed damage (FIG. 4A; Table 6) were assessed.

[2] = test system: wireworm of genus Agriotes; experiment: Wireworm field trial in Italy: insect damage (DAMINS); type: in vivo
[3] = LC-MS-MS determination of Bitrex in hybrid rye seedlings; type: in vivo
Protocol: Additional experiments in hybrid rye show also excellent systemic uptake and distribution of Bitrex. Seeds of a hybrid rye variety have been treated in application A with KintoPlus 150 ml/100 kg seeds and Bitrex 75 g/100 kg seeds and in application B with KintoPlus 150 ml/100 kg seeds and Bitrex 150 g/100 kg seeds. Seeds have been sown in longitudinal plots of 15 qm in four repetitions. 3 weeks after sowing seedlings have been harvested (40 plants per plot) and leaf material and root tissue have been analyzed using Liquid Chromatography with tandem mass spectrometry (LC-MS-MS) as described above.

## CC[N+](CC)(CC(=O)Nc1c(C)cccc1C)Cc1ccccc1.O=C([O-])c1ccccc1 [Bitrex, N-Benzyl-2-(2,6-dimethylanilino)-N, N-diethyl-2-oxoethan-1-aminium benzoate]
crows
  efficiency as corvid repellent for corn: excellent effect; also recorded: comparable or even better than the best bird repellents like Thiram, Korit and Mesurol
Maize plants; 5 g Bitrex per 50,000 seeds
  PHYGEN phytotoxicity, stage V3: 0 % per plot
  PHYGEN phytotoxicity, stage V5: 0 % per plot
  PHYGEN phytotoxicity, stage E: 0 % per plot
  VIGOR, stage E: 10
  VIGOR, stage V3: 10
  VIGOR, stage V5: 10
Maize plants; 10 g Bitrex per 50,000 seeds
  PHYGEN phytotoxicity, stage V3: 0 % per plot
  PHYGEN phytotoxicity, stage V5: 0 % per plot
  PHYGEN phytotoxicity, stage E: 0 % per plot
  VIGOR, stage E: 10
  VIGOR, stage V3: 10
  VIGOR, stage V5: 10
Maize plants; 20 g Bitrex per 50,000 seeds
  PHYGEN phytotoxicity, stage V3: 0 % per plot
  PHYGEN phytotoxicity, stage V5: 0 % per plot
  PHYGEN phytotoxicity, stage E: 0 % per plot
  VIGOR, stage E: 10
  VIGOR, stage V3: 10
  VIGOR, stage V5: 10
Maize plants; Bitrex applied at high concentration (5-20 g per 50,000 seeds), field trial
  negative effect on plant vitality with respect to phytotoxicity and plant vigor: has not been observed
[1]
  biomass of plantlets compared with controls: comparable or even more biomass than control plants without wireworm infestations
[2]; 5 g Bitrex per 50,000 seeds
  DAMINS insect damage, stage V5: 6.8 plants per row and 5.62 % per row
[2]; 10 g Bitrex per 50,000 seeds
  DAMINS insect damage, stage V5: 7.3 plants per row and 6.07 % per row
[2]; 20 g Bitrex per 50,000 seeds
  DAMINS insect damage, stage V5: 5.8 plants per row and 4.79 % per row
[3]; hybrid rye
  concentration of Bitrex in kernels: up to 460,000 ng/g
[3]; hybrid rye seedlings 3 weeks after sowing, root, application B: KintoPlus 150 ml/100 kg seeds and Bitrex 150 g/100 kg seeds
  Mean Bitrex concentration: 21169.7 ng/g and 25378.0 ng/g and 18336.0 ng/g and 15826.3 ng/g
[3]; hybrid rye, kernel, application A: KintoPlus 150 ml/100 kg seeds and Bitrex 75 g/100 kg seeds
  Mean Bitrex concentration: 460473.8 ng/g
